According to ChEMBL document CHEMBL5303711, “ECBD screening data for assay EOS300108” (2023):
Where a name gives a salt, the structure may show the parent alone. Active and inactive are the calls of the source. The rule behind the calls is not given here.

Test: Cytotoxicity activity against human HepG2 cells assessed by CellTiter-Glo luminescent cell viability assay.
Format: toxicity, cell-based
Design: assay stage confirmatory assay, source tissue liver
Conditions: HepG2 cells, read-out: IC50 relative

SMILES	CC50
N#Cc1ccc(NC(=O)Nc2cnn(-c3ccccc3)c2)cc1	8.9 µM (active)
COc1cc(N)c(Cl)cc1C(=O)NC1CCN(CCCOc2ccc(F)cc2)CC1OC (configuration not stated) [CISAPRIDE MONOHYDRATE]	38 µM (inactive)
Cc1sc2c(c1C)C(c1ccc(Cl)cc1)=N[C@@H](CC(N)=O)c1nnc(C)n1-2	0.3 µM (active)
O=c1c2ccccc2sn1-c1nccs1	50 µM (inactive)
CC(C)c1ccc(CNCCN2CCCCC2CO)cc1 (configuration not stated)	4.3 µM (active)
Cc1csc(NC(=O)CSc2ccc(-c3ccccc3)nn2)n1	14.7 µM (inactive)
CC(C)n1nc(-c2cc3cc(O)ccc3[nH]2)c2c(N)ncnc21	2.6 µM (active)
CCN(CC)c1cc(C)nc(Nc2ccc(NC(=O)C3CCCO3)cc2)n1 (configuration not stated)	11.3 µM (active)
CCCc1cnc(NC(=O)CCc2nnc(-c3ccsc3)o2)s1	8.5 µM (active)
Oc1c(Cl)cc(Cl)c(Cl)c1Cc1c(O)c(Cl)cc(Cl)c1Cl [HEXACHLOROPHENE]	5.2 µM (active)
CSc1ccc2c(c1)C(N1CCN(C)CC1)Cc1ccccc1S2 (configuration not stated) [METITEPINE]	4.9 µM (active)
CCCCCCCCc1ccc(CCC(N)(CO)CO)cc1 [FINGOLIMOD HYDROCHLORIDE]	1.4 µM (active)
CCCCC(=O)Nc1ccc(Nc2nc(C)cc(N3CCOCC3)n2)cc1	10.1 µM (active)
CCN(CC)C(=O)N1CC(Oc2ccc(-c3noc(-c4cccnc4)n3)cc2)C1	2.2 µM (active)
COCCNCc1ccc(-c2cc3nccc(Oc4ccc(NC(=O)C5(C(=O)Nc6ccc(F)cc6)CC5)cc4F)c3s2)nc1 [SITRAVATINIB]	4.6 µM (active)
COc1cc(N2CCN(C)CC2)ccc1Nc1ncc2c(n1)N(C)c1ccccc1C(=O)N2	7.5 µM (active)
CN1CCNc2cc(Br)ccc21	15.3 µM (inactive)
Cc1cc2c(=O)nc(-c3cc(OCC(F)F)ccn3)[nH]c2s1	2.2 µM (active)
Cc1cccc2c3c(ccc12)C1=C(C(=O)C3=O)[C@@H](C)CO1 [DIHYDROTANSHINONE I]	1.8 µM (active)
Cc1nc2ccccc2n1CCN1CCN(CCOc2ccccc2)CC1	7.5 µM (active)
CCc1nccn1[C@H]1CCCN(CCOc2ccc(F)cc2)C1	6 µM (active)
Cc1noc(C)c1C(=O)Nc1nc(-c2ccc(S(=O)(=O)N(C)C)cc2)cs1	11.3 µM (active)
COc1cc(CNCCN(C)C)ccc1OCc1ccc(F)cc1	13.1 µM (active)

SMILES	CC50
CC(=O)Nc1nc(C)c(-c2ccc(Cl)c(S(=O)(=O)NCCO)c2)s1	4 µM (active)
Cc1nc(NC(=O)c2cc(Br)cn2C)sc1C	1 µM (active)
COc1cc(OC)c2cc(CCCN)[nH]c2c1	8.2 µM (active)
Nc1nc(S)c2ncn(C3OC(CO)C(O)C3O)c2n1 (configuration not stated)	2.5 µM (active)
COC[C@H](NC(=O)c1cnc(C)s1)C(=O)N[C@@H](COC)C(=O)N[C@@H](Cc1ccccc1)C(=O)[C@@]1(C)CO1 [OPROZOMIB]	0.1 µM (active)
NCCNS(=O)(=O)c1cccc2cnccc12	13.2 µM (inactive)
COc1cc2c(cc1F)CN(Cc1cnc3ccccn13)CC2	2 µM (active)
Cc1cc2c(C(C)C)c(O)c(O)c(C=O)c2c(O)c1-c1c(C)cc2c(C(C)C)c(O)c(O)c(C=O)c2c1O [GOSSYPOL]	6.4 µM (active)
CN(c1ccc(C(=O)Nc2ccc(S(=O)(=O)N3CCOCC3)cc2)cc1)S(=O)(=O)c1ccccc1	2.9 µM (active)
COc1cc2nc(N3CCN(C(=O)C4COc5ccccc5O4)CC3)nc(N)c2cc1OC (configuration not stated) [DOXAZOSIN MESYLATE]	13.5 µM (inactive)
CO[C@]1(C(=O)N[C@@H](C)c2ccc(-n3cc(F)cn3)nc2)CC[C@H](c2nc(C)cc(Nc3cc(C)[nH]n3)n2)CC1 [PRALSETINIB]	9.3 µM (active)
Clc1ccc(C2=CCNCC2)cc1Cl	10.8 µM (active)
COc1cccc(NC(=O)CN(C)C(=O)Cn2ncc(Cl)c(Cl)c2=O)c1	8.5 µM (active)
C#Cc1cccc(Nc2ncnc3cc(OCCOC)c(OCCOC)cc23)c1 [ERLOTINIB HYDROCHLORIDE]	3.4 µM (inactive)
O=[N+]([O-])c1ccc(O)c2ncccc12 [NITROXOLINE]	12.4 µM (active)
CN(C)c1ccc(C(O)(c2ccc(N(C)C)cc2)c2ccc(N(C)C)cc2)cc1 [METHYLROSANILINE]	2 µM (active)
O=C(CC1CCCN(c2cn[nH]c(=O)c2)C1)Nc1cccc(Cl)c1 (configuration not stated)	8.1 µM (active)
CCCC[C@H](CC)CNC1CCN(C(C)C)CC1	7.8 µM (inactive)
NCC[C@H](N)C(=O)N1CCC2(CCC(=O)N(Cc3ccccc3)C2)CC1	11.5 µM (active)
CC(=O)N1N=C(c2ccc(Br)cc2)C[C@H]1c1ccc(O)cc1	20.2 µM (inactive)
COc1ccc(-c2cc(C(=O)N3CCCCC3C)n[nH]2)cc1S(=O)(=O)N1CCCCC1 (configuration not stated)	20.2 µM (inactive)
Cc1[nH]c(C(=O)Nc2ccc(C#N)cc2)c(C)c1S(=O)(=O)N1CCCC1	17.9 µM (inactive)
O=C(N[C@H]1CCCc2sccc21)c1cccc2c1OCO2	6.5 µM (active)

SMILES	CC50
COc1cc(-c2nnc(SC3=CS(=O)(=O)c4ccccc43)o2)cc(OC)c1OC	2.5 µM (active)
COc1cc(NCCCC(C)N)c2ncccc2c1 (configuration not stated)	8.6 µM (active)
Cc1ccc(CC(=O)N2CCN(C(=O)[C@@H]3CCCCO3)CC2)cc1	0.6 µM (active)
CCCCc1cc(=O)oc2c(C)c(OCC(=O)NCCN(C)C)ccc12	13 µM (inactive)
COc1cc(OC)c(OC)cc1CNC(=O)c1cccc2cccnc12	12 µM (inactive)
O=C(Nc1ncccc1O)c1ccc(OCc2cn3ccccc3n2)cc1	6.7 µM (active)
CN(C)c1ccnc(CNC(=O)Nc2ncc(C(F)(F)F)s2)c1	0.6 µM (active)
Nc1ncc(-c2ccnc(Nc3ccncc3)n2)c(CC2CC2)n1	7 µM (active)
CCc1cc(N2CCC(NC(=O)N3CCN(c4cccnn4)CC3)CC2)ncn1	16.3 µM (inactive)
O=C(Nc1nnc2ccccn12)c1ccc(F)c(Cl)c1	2.7 µM (active)
O=C(Nc1ccncc1)c1cccn(Cc2cccc(F)c2)c1=O	6.1 µM (active)
Cc1cccc(N2CCN(C(=O)C3CCCN(S(=O)(=O)c4ccc5c(c4)oc(=O)n5C)C3)CC2)c1C (configuration not stated)	6.1 µM (active)
CC(C)(C#N)c1ccc(N2C(=O)OCc3cnc4ccc(-c5cnc6ccccc6c5)cc4c32)cc1	7 µM (active)
Cn1ncc(N2CCC(C(=O)N3CCN(CCOc4ccc(Cl)cc4)CC3)C2)cc1=O (configuration not stated)	5 µM (active)
COc1c(Nc2ncc(Cl)c(N[C@H]3[C@@H](C(N)=O)[C@@H]4C=C[C@H]3C4)n2)ccc2c1CC[C@@H](N1CCOCC1)CC2	2 µM (active)
COc1ccc(Nc2ssc(=O)c2Cl)cc1OC	13.8 µM (active)
COc1ccc(-c2nc(CN3CCN(C(=O)c4ccc5c(c4)OCO5)CC3)cs2)cc1	7.8 µM (active)
CN(C)C[C@@H]1CCn2cc(c3ccccc32)C2=C(C(=O)NC2=O)c2cn(c3ccccc23)CCO1	3 µM (active)
CCOc1ncccc1C(=O)NCc1nccc2ccccc12	3.9 µM (active)
CCN(C(=O)c1c[nH]n2c1nc(=O)c1ccccc12)[C@@H](C)c1ccc(F)cc1	5 µM (active)
